Experimental data: PubChem BioAssay (NCI)
Values joined by “and” are separate entries in the source; they are usually repeats but may differ in a detail not shown here. Equal values may be shown once.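 In this assay, cells in 96-well plates receive the compound at five concentrations for 48 hours. Endpoints are linearly interpolated between the surrounding concentrations. GI50 is the concentration that inhibits growth by half. Definition used: TGI = concentration required for complete inhibition of growth.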

Experiments:
Assay in all cases: NCI anticancer screen, dose series, 48 h
ACHN renal = tested on: ACHN renal
LOX IMVI melanoma = tested on: LOX IMVI melanoma
M14 melanoma = tested on: M14 melanoma
MDA-MB-231 breast = tested on: MDA-MB-231 breast
MOLT-4 leukemia = tested on: MOLT-4 leukemia
NCI-H226 lung = tested on: NCI-H226 lung
T-47D breast = tested on: T-47D breast
U251 CNS = tested on: U251 CNS
UACC-257 melanoma = tested on: UACC-257 melanoma
UO-31 renal = tested on: UO-31 renal

SMILES	GI50 (ACHN renal)	TGI (ACHN renal) [µM]	GI50 (LOX IMVI melanoma)	TGI (LOX IMVI melanoma)	GI50 (M14 melanoma)	TGI (M14 melanoma)	GI50 (MDA-MB-231 breast)	TGI (MDA-MB-231 breast)	GI50 (MOLT-4 leukemia)	TGI (MOLT-4 leukemia)	GI50 (NCI-H226 lung)	TGI (NCI-H226 lung)	GI50 (T-47D breast)	TGI (T-47D breast)	GI50 (U251 CNS)	TGI (U251 CNS) [µM]	GI50 (UACC-257 melanoma)	TGI (UACC-257 melanoma)	GI50 (UO-31 renal)	TGI (UO-31 renal)
CCCCCCCCCCCCNCCCc1ccccc1	1.8 µM	3.5	1.77 µM	3.24 µM	1.76 µM	3.25 µM	1.61 µM	3.12 µM	2.04 µM	4.5 µM	1.87 µM	3.61 µM	1.78 µM	3.37 µM	1.53 µM	2.86	1.74 µM	3.18 µM	1.86 µM	4.35 µM
O=c1oc2cc(O)ccc2cc1-c1nc2ccccc2o1		> 100		> 100 µM		> 100 µM		> 100 µM		> 100 µM		> 100 µM		31.2 µM		93.5		> 100 µM		80.2 µM
CC(=O)OC1C(C)OC(Oc2c(-c3ccc(O)cc3)oc3cc(O)cc(O)c3c2=O)C(O)C1OC(C)=O (stereo not given)	52.3 µM	> 100	21 µM	50.2 µM	33.5 µM	> 100 µM	21.1 µM	63.7 µM	26.7 µM	> 75 µM	36.9 µM	> 100 µM	23.4 µM	68.6 µM	32.1 µM	> 100	27.6 µM	> 79.9 µM	39.3 µM	> 100 µM
Nc1ncnc2occ(-c3ccc(NC(=O)Nc4cccc(C(F)(F)F)c4)cc3)c12	1.4 µM	12.1	2.57 µM	12.1 µM	3.2 µM	9.19 µM	5.8 µM	16.4 µM	3.54 µM	15.5 µM	0.367 µM	6.1 µM	5.22 µM	15 µM	5.27 µM	16.5	4.24 µM	8.86 µM	2.88 µM	11 µM
O=C(NCCc1nccs1)c1cnc2c(S)cccc2c1	3.36 µM	14.1	2.35 µM	92.8 µM	3.5 µM	38.6 µM	3.33 µM	56.4 µM	1.14 µM	> 100 µM	5.7 µM	21.4 µM	2.37 µM	62.6 µM	2.53 µM	16.7	3.77 µM	15.3 µM	3.26 µM	16 µM
O=C(Nc1ccc(Br)cc1)c1cc(Br)ccc1O	0.61 µM and 1.47 µM	> 64	0.549 µM and 1.09 µM	4.46 µM and 4.42 µM	1 µM and 2.13 µM	7.07 µM and 18.2 µM	0.622 µM and 1.43 µM	3.22 µM and 7.06 µM	0.683 µM and 0.799 µM	3.2 µM and 3.89 µM	0.747 µM and 0.729 µM	4.52 µM and 4.03 µM	0.337 µM and 0.604 µM	5.02 µM and 7.42 µM	0.417 µM and 0.682 µM	> 100	0.455 µM and 2.73 µM	3.58 µM and 8.43 µM	0.247 µM and 0.767 µM	2.16 µM and 9.78 µM
Nc1ncnc2c1ncn2C1OC(F)(COS(N)(=O)=O)C(O)C1O (stereo not given)	> 100 µM	> 100	> 100 µM	> 100 µM	> 100 µM	> 100 µM	> 100 µM	> 100 µM	> 100 µM	> 100 µM	> 100 µM	> 100 µM	> 100 µM	> 100 µM	> 100 µM	> 100	> 100 µM	> 100 µM	> 100 µM	> 100 µM
COc1cccc2c1C(=O)c1c(O)c3c(c(O)c1C2=O)C[C@@](O)(C(=O)CO)C[C@@H]3OC1CC2C(OCN2CN2COC3C(C)OC(O[C@H]4C[C@](O)(C(=O)CO)Cc5c(O)c6c(c(O)c54)C(=O)c4c(OC)cccc4C6=O)CC32)C(C)O1 (stereo not given in full)	0.00194 µM	0.0345	0.002 µM	0.0328 µM	0.0067 µM	0.0405 µM	0.0156 µM	0.072 µM	0.000203 µM	0.00801 µM	0.00981 µM	0.0584 µM	0.00185 µM	0.0174 µM	0.00291 µM	0.0979	0.0015 µM	0.0208 µM	0.00304 µM	0.0283 µM
CC12CC(Br)(Br)C(=O)C3C1CCCC32		15.5		7.67 µM		10.1 µM		7.62 µM		14.9 µM		27.2 µM		6.4 µM		25.9		22.2 µM		15 µM
CCOC(=O)c1c(C)n(Cc2ccc(Cl)cc2Cl)c2c1cc(O)c1[nH]c(Cc3ccccc3)nc12	3.49 µM	13.4	1.89 µM	3.66 µM	11 µM	37.5 µM	3.61 µM	12.5 µM	2.3 µM	5.27 µM	14 µM	30.9 µM	5.27 µM	25.9 µM	3.41 µM	12.1	19.3 µM	39 µM	3.75 µM	16.6 µM
O=C(/C=C/c1cccc(Cl)c1)c1ccccc1	10.5 µM	23.3	3.06 µM	10.8 µM	3.78 µM	13.5 µM	12.2 µM	28.5 µM	4.07 µM	36.4 µM	14.4 µM	29.6 µM	12.7 µM	32.2 µM	2.67 µM	7.89	15.1 µM	29 µM	6.55 µM	21.9 µM
CCOC(=O)CCC(NC(=O)c1ccc(Oc2nc3cc(N)cc(N)c3nc2-c2ccccc2)cc1)C(=O)OCC (stereo not given)	28.5 µM	> 100	11.9 µM	26.1 µM	40 µM	> 100 µM	11.3 µM	32.6 µM	39 µM	> 100 µM	2.94 µM	25 µM	24.6 µM	59.7 µM	> 100 µM	> 100	26.7 µM	55.1 µM	48.7 µM	> 100 µM
CCc1n(Cc2ccc3ccccc3c2)cc[n+]1Cc1ccc2ccccc2c1	2.87 µM	10	0.649 µM	1.96 µM	1.21 µM	2.96 µM	0.392 µM	1.44 µM	0.829 µM	2.99 µM	1.08 µM	3.82 µM	0.425 µM	4.7 µM	0.578 µM	2.2	0.554 µM	3.27 µM	2.22 µM	8.86 µM
